Test results reported in US20150105252A1, “SUBSTITUTED PYRAZOLES AS HERBICIDES” (E I DU PONT DE NEMOURS AND COMPANY, priority 2013, published 2015).

Tests used:
barnyardgrass [1] = experiment: Test A preemergence; assay type: in vivo, Echinochloa crus-galli; settings: preemergence
Procedure, shortened: (§1)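 Seeds were sown in a loam soil–sand blend and given a directed soil spray preemergence; postemergence plants at 2–10 cm, one- to two-leaf stage, were sprayed with compound in non-phytotoxic solvent with surfactant. After about 10 days in a greenhouse, injury was visually rated against untreated controls (0 = no effect, 100 = complete control).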

blackgrass = experiment: Test C preemergence; assay type: in vivo, Alopecurus myosuroides; settings: for Blackgrass plant response rating / Plant response rating, Blackgrass: preemergence; for Plant response rating, Blackgrass: scale 0 to 100, 0 = no effect, 100 = complete control
Procedure, shortened: (§2)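 Greenhouse pot test: preemergence application onto freshly seeded loam/sand mix, postemergence application onto seedlings (1–4 leaves, 2–18 cm) in peat-vermiculite substrate. Responses scored visually 13 to 15 days later relative to controls, where 0 means no effect and 100 means complete control; a dash indicates no result.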

pigweed = experiment: Test A postemergence; assay type: in vivo, Amaranthus retroflexus
Procedure, shortened: as §1

velvetleaf [2] = experiment: Test A preemergence; assay type: in vivo, Abutilon theophrasti; settings: preemergence
Procedure, shortened: as §1

corn [3] = experiment: Test C preemergence; assay type: in vivo, Zea mays; settings: for Corn plant response rating / Plant response rating, Corn: preemergence; for Plant response rating, Corn: scale 0 to 100, 0 = no effect, 100 = complete control
Procedure, shortened: as §2

corn [4] = experiment: Test A preemergence; assay type: in vivo, Zea mays; settings: preemergence
Procedure, shortened: as §1

barnyardgrass [5] = experiment: Test C preemergence; assay type: in vivo, Echinochloa crus-galli; settings: for Barnyardgrass plant response rating / Plant response rating, Barnyardgrass: preemergence; for Plant response rating, Barnyardgrass: scale 0 to 100, 0 = no effect, 100 = complete control
Procedure, shortened: as §2

foxtail, giant = experiment: Test C preemergence; assay type: in vivo, Setaria faberii; settings: for Foxtail, Giant plant response rating / Plant response rating, Foxtail, Giant: preemergence; for Plant response rating, Foxtail, Giant: scale 0 to 100, 0 = no effect, 100 = complete control
Procedure, shortened: as §2

velvetleaf [6] = experiment: Test C preemergence; assay type: in vivo, Abutilon theophrasti; settings: for Velvetleaf plant response rating / Plant response rating, Velvetleaf: preemergence; for Plant response rating, Velvetleaf: scale 0 to 100, 0 = no effect, 100 = complete control
Procedure, shortened: as §2

wheat [7] = experiment: Test C preemergence; assay type: in vivo, Triticum aestivum; settings: for Wheat plant response rating / Plant response rating, Wheat: preemergence; for Plant response rating, Wheat: scale 0 to 100, 0 = no effect, 100 = complete control
Procedure, shortened: as §2

johnsongrass = experiment: Test C preemergence; assay type: in vivo, Sorghum halepense; settings: for Johnsongrass plant response rating / Plant response rating, Johnsongrass: preemergence; for Plant response rating, Johnsongrass: scale 0 to 100, 0 = no effect, 100 = complete control
Procedure, shortened: as §2

crabgrass, large [8] = experiment: Test A postemergence; assay type: in vivo, Digitaria sanguinalis
Procedure, shortened: as §1

wheat [9] = experiment: Test A postemergence; assay type: in vivo, Triticum aestivum
Procedure, shortened: as §1

wheat [10] = experiment: Test A preemergence; assay type: in vivo, Triticum aestivum; settings: preemergence
Procedure, shortened: as §1

crabgrass, large [11] = experiment: Test A preemergence; assay type: in vivo, Digitaria sanguinalis; settings: preemergence
Procedure, shortened: as §1

oilseed rape = experiment: Test C preemergence; assay type: in vivo, Brassica napus; settings: for Oilseed Rape plant response rating / Plant response rating, Oilseed Rape: preemergence; for Plant response rating, Oilseed Rape: scale 0 to 100, 0 = no effect, 100 = complete control
Procedure, shortened: as §2

ragweed = experiment: Test C preemergence; assay type: in vivo, Ambrosia elation; settings: for Ragweed plant response rating / Plant response rating, Ragweed: preemergence; for Plant response rating, Ragweed: scale 0 to 100, 0 = no effect, 100 = complete control
Procedure, shortened: as §2

[12] = 125 g ai/ha, visual injury, 0 to 100 scale, approx. 10 days
[13] = 500 g ai/ha, visual injury after approx. 10 days, 0 to 100 scale (0 no effect, 100 complete control)
[14] = 31 g ai/ha, visual rating, scale 0 to 100 (0 no effect, 100 complete control), 13 to 15 days
[15] = 62 g ai/ha, scale 0 to 100 (0 no effect, 100 complete control), 13 to 15 days
[16] = 250 g ai/ha, scale 0 to 100, 0 is no effect, 100 is complete control
[17] = Postemergence, 500 g ai/ha, 0 to 100 scale (0 no effect, 100 complete control)
[18] = postemergence, 125 g ai/ha, about 10 days, visual rating on 0 to 100 scale (0 no effect, 100 complete control)
[19] = 125 g ai/ha, visual injury approx. 10 days after treatment
[20] = 125 g ai/ha, scale 0 to 100, 0 is no effect, 100 is complete control
[21] = Postemergence, 500 g ai/ha, visual rating after approx. 10 days, 0 to 100 scale (0 no effect, 100 complete control)

CCCNC(=O)c1cc(CCCl)n(Cc2ccnc(C(F)(F)F)c2)n1 [Compound 145]
98: Plant response rating, Johnsongrass (johnsongrass; 125 g ai/ha, 13 to 15 days) | Johnsongrass plant response rating (johnsongrass; [16]) | Oilseed Rape plant response rating (oilseed rape; [15]) | Oilseed Rape plant response rating (oilseed rape; [16]) | Ragweed plant response rating (ragweed; [16])
85: Blackgrass plant response rating (blackgrass; [15])
40: Wheat plant response rating (wheat [7]; [15]) | Wheat plant response rating (0 to 100 scale) (wheat [10]; [19])
50: Velvetleaf plant response rating (0 to 100 scale) (velvetleaf [2]; [19]) | Corn plant response rating (corn [3]; [15]) | Plant response rating, Wheat (wheat [7]; 125 g ai/ha, 13 to 15 days) | Wheat plant response rating (wheat [9]; [18])
70: Blackgrass plant response rating (blackgrass; [14])
100: Barnyardgrass plant response rating (barnyardgrass [1]; [13]) | Pigweed plant response rating (pigweed; [17]) | Pigweed plant response rating (pigweed; [18]) | Plant response rating, Barnyardgrass (barnyardgrass [5]; 125 g ai/ha, 13 to 15 days) | Barnyardgrass plant response rating (barnyardgrass [5]; [16]) | Foxtail, Giant plant response rating (foxtail, giant; [14]) | Plant response rating, Foxtail, Giant (foxtail, giant; 125 g ai/ha, 13 to 15 days) | Foxtail, Giant plant response rating (foxtail, giant; [16]) | Velvetleaf plant response rating (velvetleaf [6]; [15]) | Plant response rating, Velvetleaf (velvetleaf [6]; 125 g ai/ha, 13 to 15 days) | Velvetleaf plant response rating (velvetleaf [6]; [16]) | Wheat plant response rating (wheat [10]; [13]) | Crabgrass, Large plant response rating (0 to 100 scale) (crabgrass, large [11]; [19]) | Crabgrass, Large plant response rating (crabgrass, large [11]; [13]) | Plant response rating, Oilseed Rape (oilseed rape; 125 g ai/ha, 13 to 15 days)
90: Barnyardgrass plant response rating (barnyardgrass [1]; [12]) | Plant response rating, Blackgrass (blackgrass; 125 g ai/ha, 13 to 15 days) | Blackgrass plant response rating (blackgrass; [16]) | Corn plant response rating (corn [3]; [16]) | Velvetleaf plant response rating (velvetleaf [6]; [14]) | Wheat plant response rating (wheat [7]; [16]) | Crabgrass, Large plant response rating (crabgrass, large [8]; [17]) | Crabgrass, Large plant response rating (crabgrass, large [8]; [18])
80: Velvetleaf plant response rating (velvetleaf [2]; [13]) | Plant response rating, Corn (corn [3]; 125 g ai/ha, 13 to 15 days) | Wheat plant response rating (wheat [9]; [17])
55: Johnsongrass plant response rating (johnsongrass; [14])
95: Barnyardgrass plant response rating (barnyardgrass [5]; [14]) | Ragweed plant response rating (ragweed; [15]) | Plant response rating, Ragweed (ragweed; 125 g ai/ha, 13 to 15 days)
5: Wheat plant response rating (wheat [7]; [14])
75: Ragweed plant response rating (ragweed; [14])
10: Corn plant response rating (corn [3]; [14])
60: Corn plant response rating (corn [4]; [13]) | Oilseed Rape plant response rating (oilseed rape; [14])
30: Corn plant response rating (0 to 100 scale) (corn [4]; [19])

CCCc1cc(C(=O)NCC)nn1Cc1ccnc(C(F)(F)F)c1 [Compound 95]
85: Plant response rating, Johnsongrass (johnsongrass; 62 g ai/ha, 13 to 15 days)
60: Wheat plant response rating (wheat [7]; [20]) | Johnsongrass plant response rating (johnsongrass; [14])
35: Corn plant response rating (corn [3]; [14])
80: Corn plant response rating (corn [3]; [20]) | Wheat plant response rating (wheat [9]; [18]) | Ragweed plant response rating (ragweed; [14])
5: Wheat plant response rating (wheat [7]; [14])
50: Plant response rating, Corn (corn [3]; 62 g ai/ha, 13 to 15 days) | Corn plant response rating (corn [4]; [12]) | Velvetleaf plant response rating (velvetleaf [6]; [14])
100: Barnyardgrass plant response rating (barnyardgrass [1]; [12]) | Barnyardgrass plant response rating (barnyardgrass [1]; [13]) | Plant response rating (scale of 0 to 100), Blackgrass (blackgrass; Preemergence, 250 g ai/ha) | Blackgrass plant response rating (blackgrass; [14]) | Plant response rating, Blackgrass (blackgrass; 62 g ai/ha, 13 to 15 days) | Blackgrass plant response rating (blackgrass; [20]) | Pigweed plant response rating (pigweed; [21]) | Pigweed plant response rating (pigweed; [18]) | Velvetleaf plant response rating (velvetleaf [2]; [13]) | Plant response rating (scale of 0 to 100), Barnyardgrass (barnyardgrass [5]; Preemergence, 250 g ai/ha) | Barnyardgrass plant response rating (barnyardgrass [5]; 31 g ai/ha, scale 0 to 100 (0 no effect, 100 complete control), 13 to 15 days) | Plant response rating, Barnyardgrass (barnyardgrass [5]; 62 g ai/ha, 13 to 15 days) | Barnyardgrass plant response rating (barnyardgrass [5]; [20]) | Plant response rating (scale of 0 to 100), Foxtail, Giant (foxtail, giant; Preemergence, 250 g ai/ha) | Foxtail, Giant plant response rating (foxtail, giant; [14]) | Plant response rating, Foxtail, Giant (foxtail, giant; 62 g ai/ha, 13 to 15 days) | Foxtail, Giant plant response rating (foxtail, giant; [20]) | Plant response rating (scale of 0 to 100), Velvetleaf (velvetleaf [6]; Preemergence, 250 g ai/ha) | Plant response rating, Velvetleaf (velvetleaf [6]; 62 g ai/ha, 13 to 15 days) | Velvetleaf plant response rating (velvetleaf [6]; [20]) | Plant response rating (scale of 0 to 100), Johnsongrass (johnsongrass; Preemergence, 250 g ai/ha) | Crabgrass, Large plant response rating (crabgrass, large [8]; [21]) | Wheat plant response rating (wheat [10]; [13]) | Crabgrass, Large plant response rating (crabgrass, large [11]; [12]) | Crabgrass, Large plant response rating (crabgrass, large [11]; [13]) | Plant response rating (scale of 0 to 100), Oilseed Rape (oilseed rape; Preemergence, 250 g ai/ha) | Oilseed Rape plant response rating (oilseed rape; [14]) | Plant response rating, Oilseed Rape (oilseed rape; 62 g ai/ha, 13 to 15 days) | Oilseed Rape plant response rating (oilseed rape; [20]) | Plant response rating (scale of 0 to 100), Ragweed (ragweed; Preemergence, 250 g ai/ha) | Ragweed plant response rating (ragweed; [20])
95: Plant response rating (scale of 0 to 100), Corn (corn [3]; Preemergence, 250 g ai/ha) | Johnsongrass plant response rating (johnsongrass; [20]) | Plant response rating, Ragweed (ragweed; 62 g ai/ha, 13 to 15 days)
55: Plant response rating, Wheat (wheat [7]; 62 g ai/ha, 13 to 15 days)
70: Wheat plant response rating (wheat [10]; [12])
90: Velvetleaf plant response rating (velvetleaf [2]; [12]) | Corn plant response rating (corn [4]; [13]) | Plant response rating (scale of 0 to 100), Wheat (wheat [7]; Preemergence, 250 g ai/ha) | Crabgrass, Large plant response rating (crabgrass, large [8]; [18]) | Wheat plant response rating (wheat [9]; [21])
